The values that follow come from ChEMBL document CHEMBL1201862, “PubChem BioAssay data set” (2004).

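Method: 48-hour compound exposure of cells in 96-well plates, five concentrations, linear interpolation of endpoints. Here, GI50 denotes the concentration required for 50% inhibition of growth.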 Calls of active or inactive are those of the source. Cut-off read from the data, not from the text of the source: active = GI50 up to about 1.1 µM and inactive = higher. Where only a bound is given, the exact number is not on record here.

Some test systems named below: MDA-N; NCI-H522; SK-MEL-28; A498; DU-145; UACC-257; COLO 205; SN12C; IGROV-1; SF-268; NCI-H226; LOX IMVI; T47D; UACC-62; SNB-19; NCI-H23; 786-0; HL-60; SR.
What all share (assay): growth of human tumour cells (NCI), 48 h

Turning to `Nc1nnnn1CCO`, the GI50 with MDA-N, in the assay with NCI-H522, in the assay on SK-MEL-28, in the assay with A498, in the assay on DU-145 and in the assay on UACC-257 was > 100 µM (inactive) throughout. The GI50 in the assay with COLO 205, in the assay on SN12C, with IGROV-1, in the assay with SF-268, with NCI-H226 and with LOX IMVI was > 100 µM (inactive) in each case. Besides, the GI50 in the assay on T47D, in the assay on UACC-62, in the assay on SNB-19, in the assay on NCI-H23 and with 786-0 was > 100 µM (inactive) throughout.
For `O=C1NC(=O)C2(CCCCCC2)N1`, the GI50 in the assay with MDA-N, with NCI-H522, with SK-MEL-28, in the assay with A498, with DU-145 and in the assay with UACC-257 was > 100 µM (inactive) each time. The GI50 with COLO 205, in the assay on SN12C, with IGROV-1, in the assay on SF-268, in the assay with NCI-H226 and with LOX IMVI was > 100 µM (inactive) each time. Also, the GI50 in the assay with T47D, with UACC-62, with SNB-19, in the assay with NCI-H23 and with 786-0 was > 100 µM (inactive) in each case.
`COC(=O)c1ccc(NCc2c(O)ccc(O)c2Br)cc1Cl`: the GI50 in the assay with MDA-N was 12 µM (inactive); in the assay on NCI-H522, 0.329 µM (active); in the assay with SK-MEL-28, 16.8 µM (inactive); in the assay with A498, > 100 µM (inactive); in the assay with DU-145, 16.2 µM (inactive); with UACC-257, 25.2 µM (inactive). In addition, the GI50 is 18.1 µM (inactive) with COLO 205; 12.6 µM (inactive) in the assay with SN12C; 14.5 µM (inactive) in the assay with IGROV-1; 17.4 µM (inactive) in the assay with SF-268; 31.5 µM (inactive) with NCI-H226; 13 µM (inactive) with LOX IMVI. In addition, the GI50 in the assay with T47D is 19.6 µM (inactive); with UACC-62, 15.7 µM (inactive); with SNB-19, 25.9 µM (inactive); in the assay on HL-60 it was 1.69 µM (inactive); with NCI-H23 it was 16.6 µM (inactive); in the assay on 786-0 it was 18.4 µM (inactive).
In the case of `CCOC(=O)c1c(C)n(Cc2ccccc2)c2c1cc(O)c1[nH]c3c(c12)CCCC3`, the GI50 was 13.6 µM (inactive) in the assay with MDA-N; 1.16 µM (inactive) with NCI-H522; 5.18 µM (inactive) in the assay on SK-MEL-28; 12.6 µM (inactive) with DU-145; 17.5 µM (inactive) in the assay with UACC-257; 5.85 µM (inactive) in the assay on COLO 205. The GI50 was 5.47 µM (inactive) in the assay with SN12C; 3.44 µM (inactive) with IGROV-1; 1.81 µM (inactive) in the assay on SF-268; 4.85 µM (inactive) in the assay with LOX IMVI; 2.03 µM (inactive) with T47D; 1.9 µM (inactive) with UACC-62. The GI50 in the assay with SNB-19 is 3.03 µM (inactive); in the assay with HL-60 it was 2.41 µM (inactive); in the assay on NCI-H23, 10.4 µM (inactive); in the assay with 786-0, 16.1 µM (inactive).
On to `COc1ccc(N2C(=O)CSC2c2cc3cc(Br)ccc3nc2Cl)cc1` (stereo not given), for which the GI50 in the assay on NCI-H522 is 27.4 µM (inactive); with SK-MEL-28, > 50 µM (inactive); with SR, 18.7 µM (inactive); in the assay on A498, > 50 µM (inactive); in the assay on DU-145, > 50 µM (inactive); in the assay with UACC-257, 17.9 µM (inactive). The GI50 in the assay on COLO 205 is > 50 µM (inactive); in the assay with SN12C, > 50 µM (inactive); in the assay with IGROV-1, > 50 µM (inactive); in the assay with SF-268 it was > 50 µM (inactive); in the assay with NCI-H226, > 50 µM (inactive); with LOX IMVI, 37.6 µM (inactive). The GI50 in the assay on T47D was 38.3 µM (inactive); in the assay with UACC-62, 10.3 µM (inactive); with SNB-19, > 50 µM (inactive); with HL-60, > 50 µM (inactive); with NCI-H23, > 50 µM (inactive); with 786-0, > 50 µM (inactive).
Consider `CCCCCCCCCCCCCCCC(=O)OC1C(O)C(O)C(O)C(O)C12CO2` (stereo not given), for which the GI50 in the assay with MDA-N is > 100 µM (inactive); in the assay with NCI-H522, 33 µM (inactive); in the assay on SK-MEL-28, > 100 µM (inactive); in the assay on A498, > 100 µM (inactive); in the assay on DU-145, 88.5 µM (inactive); with UACC-257, > 100 µM (inactive). Also, the GI50 in the assay on COLO 205 was 36.3 µM (inactive); in the assay on SN12C it was 17.5 µM (inactive); in the assay on IGROV-1, 25.1 µM (inactive); in the assay on SF-268 it was 34 µM (inactive); in the assay on NCI-H226, 42.8 µM (inactive); with LOX IMVI, 20.3 µM (inactive). In addition, the GI50 with T47D was > 100 µM (inactive); in the assay with UACC-62 it was 28.4 µM (inactive); in the assay with SNB-19 it was > 100 µM (inactive); in the assay with HL-60, 15.2 µM (inactive); in the assay on NCI-H23, 49.2 µM (inactive); with 786-0 it was 18.6 µM (inactive).
As to `COc1cc(/N=N/N(C)C)c(C(C)c2c3cc(OC)c(OC)cc3cc[n+]2C)cc1OC` (stereo not given), the GI50 was 34.8 µM (inactive) with MDA-N; > 100 µM (inactive) in the assay on A498; 62.7 µM (inactive) with DU-145; 38 µM (inactive) in the assay with UACC-257; 14.8 µM (inactive) in the assay with COLO 205; 40.5 µM (inactive) in the assay on SN12C. For the same compound, the GI50 is 36.9 µM (inactive) in the assay on IGROV-1; 31.3 µM (inactive) in the assay with SF-268; 78.5 µM (inactive) with NCI-H226; 25.2 µM (inactive) with LOX IMVI; 23.4 µM (inactive) in the assay with T47D; 25.1 µM (inactive) in the assay on UACC-62. The figures for the GI50 in the assay on SNB-19, in the assay on NCI-H23 and in the assay with 786-0 were 42.3 µM (inactive), 41.6 µM (inactive) and 51.8 µM (inactive), respectively.
Take `CN(N)/N=N/c1[nH]cnc1[N+](=O)[O-]`: the GI50 with MDA-N is 51.2 µM (inactive); in the assay on NCI-H522 it was > 100 µM (inactive); with SK-MEL-28, > 100 µM (inactive); in the assay on A498 it was > 100 µM (inactive); in the assay with DU-145, > 100 µM (inactive); with UACC-257 it was > 100 µM (inactive). The GI50 with COLO 205 was > 100 µM (inactive); in the assay on SN12C, 31.8 µM (inactive); in the assay on IGROV-1, > 100 µM (inactive); in the assay on SF-268, 42.9 µM (inactive); in the assay with NCI-H226 it was > 100 µM (inactive); with LOX IMVI, 39.2 µM (inactive). Besides, the GI50 is 20.6 µM (inactive) in the assay on T47D; > 100 µM (inactive) in the assay with UACC-62; 2.99 µM (inactive) in the assay with HL-60; > 100 µM (inactive) in the assay on NCI-H23; 18.7 µM (inactive) in the assay on 786-0.
Turning to `Nc1cccc(OCC2CCCN3CCCCC23)c1` (stereo not given), the GI50 in the assay with MDA-N is 16 µM (inactive); with SK-MEL-28, 19.1 µM (inactive); with A498, 14.4 µM (inactive); with DU-145, 17.5 µM (inactive); in the assay with UACC-257 it was 19 µM (inactive); in the assay on COLO 205, 19.5 µM (inactive). Moreover, the GI50 in the assay with SN12C is 16.7 µM (inactive); in the assay on SF-268 it was 20.1 µM (inactive); in the assay on NCI-H226, 41.7 µM (inactive); in the assay on LOX IMVI it was 15.8 µM (inactive); in the assay on T47D, 17.8 µM (inactive); in the assay on UACC-62 it was 17.1 µM (inactive). In addition, the GI50 with SNB-19 is 17.9 µM (inactive); with HL-60, 20.1 µM (inactive); in the assay with NCI-H23, 17.7 µM (inactive); in the assay on 786-0, 15.6 µM (inactive).
Regarding `CC1SCc2nc3ccccc3n21` (stereo not given), the GI50 in the assay with MDA-N, in the assay with NCI-H522, with SK-MEL-28, in the assay on A498, with DU-145 and with UACC-257 was > 100 µM (inactive) in each case. For the same compound, the GI50 in the assay with COLO 205 is > 100 µM (inactive); in the assay with SN12C, > 100 µM (inactive); in the assay on IGROV-1, > 100 µM (inactive); in the assay on SF-268 it was > 100 µM (inactive); in the assay on NCI-H226, 3.58 µM (inactive); with LOX IMVI it was > 100 µM (inactive). The GI50 with T47D, in the assay on UACC-62, in the assay with SNB-19, with HL-60, in the assay on NCI-H23 and in the assay on 786-0 was > 100 µM (inactive) throughout.
Turning to `O=c1nc2n3c4c(cccc4nc-2c(=O)[nH]1)CCC3`, the GI50 in the assay on MDA-N is > 100 µM (inactive); in the assay on NCI-H522, 27.2 µM (inactive); with SK-MEL-28, > 100 µM (inactive); in the assay on DU-145 it was > 100 µM (inactive); with UACC-257, > 100 µM (inactive); with COLO 205 it was 47 µM (inactive). Besides, the GI50 with SN12C is > 100 µM (inactive); in the assay with IGROV-1 it was > 100 µM (inactive); in the assay with SF-268, > 100 µM (inactive); with NCI-H226, > 100 µM (inactive); in the assay on LOX IMVI, > 100 µM (inactive); in the assay on T47D, 60.7 µM (inactive). The GI50 is > 100 µM (inactive) with UACC-62; > 100 µM (inactive) with SNB-19; 70.8 µM (inactive) in the assay with HL-60; > 100 µM (inactive) in the assay on NCI-H23; > 100 µM (inactive) with 786-0.
Regarding `CN(C)CCOC(=O)c1ccc(N)cc1`, the GI50 in the assay on MDA-N is 36.6 µM (inactive); with NCI-H522, 20.4 µM (inactive); with SK-MEL-28 it was 29.1 µM (inactive); with A498, 38.4 µM (inactive); in the assay with DU-145, 71.6 µM (inactive); in the assay on UACC-257 it was 19.4 µM (inactive). The GI50 in the assay with COLO 205 was 67.3 µM (inactive); with SN12C, 48.2 µM (inactive); in the assay on IGROV-1 it was 22.4 µM (inactive); in the assay on SF-268, 41.6 µM (inactive); in the assay on NCI-H226 it was 21.5 µM (inactive); with LOX IMVI, 28.7 µM (inactive). Further, the GI50 with T47D was 58.5 µM (inactive); in the assay on UACC-62, 36.8 µM (inactive); in the assay on SNB-19, 56.5 µM (inactive); in the assay with HL-60, 39 µM (inactive); in the assay with NCI-H23, 74.1 µM (inactive); with 786-0 it was 44.8 µM (inactive).
